Measured values reported in publication PMC9395488, “First-in-human study of IM156, a novel potent biguanide oxidative phosphorylation (OXPHOS) inhibitor, in patients with advanced solid tumors” (Investigational New Drugs, 2022).

Test system: patients with advanced solid tumors
Assay: First-in-human phase 1 dose-escalation study: safety, DLTs, adverse events
Format: in vivo
From the text: This multicenter first-in-human dose-escalation phase 1 study (clinicaltrials.gov identifier: NCT03272256) was designed to determine the MTD or RP2D and to evaluate the safety and tolerability of IM156. Secondary endpoints included PK characteristics, efficacy assessment (objective response rate [ORR], disease control rate [DCR], duration of response [DoR] and progression-free survival [PFS]). Furthermore, exploratory objectives included identification and profiling of IM156 metabolites, evaluations of exploratory PD markers of IM156, and evaluations of any potential relationship between putative biomarkers and safety/efficacy parameters of IM156. The study was conducted in accordance with Good Clinical Practice, the International Council for Harmonisation, and guidelines governing clinical study conduct and the ethical principles originating from the Declaration of Helsinki. The study was approved by each Institutional Review Board and patients provided written informed consent. Patients were enrolled at three sites in South Korea.
The initial dose and schedule of IM156 was chosen based on animal toxicology studies. […] IM156 was administered in the fasted state, with no food for at least 2 h before and 1 h after dosing.
Three DLT-evaluable patients were enrolled at each dose level. If there were no DLTs or other prohibitive adverse events (AEs), the Safety Committee was allowed to recommend escalation to the next highest dose level. If 1 DLT occurred in the first 3 DLT-evaluable patients, enrollment in that cohort was expanded to an additional 3 DLT-evaluable patients; if ≥ 2 DLTs were reported in a cohort, that dose was considered above the MTD.
Safety was assessed through vital signs, weight, laboratory assessments, physical examinations, electrocardiogram, and reporting of AEs as graded by the National Cancer Institute’s Common Terminology Criteria for Adverse Events v4.03 (NCI-CTCAE).
DLTs were defined as the following AEs if they were attributed as related to IM156: asymptomatic grade 4 neutropenia lasting for ≥ 5 days; febrile neutropenia, regardless of grade; grade 4 thrombocytopenia or grade 3 thrombocytopenia with bleeding; any grade ≥ 3 non-hematologic AE (except grade 3 hypertension and grade 3 nausea, vomiting or diarrhea for which proper measures for prevention and treatment were not implemented, and alopecia); blood lactate levels > 5 mmol; grade ≥ 2 AE prohibiting dosing of IM156 for ≥ 21 continuous days except for alterations in serum calcium or phosphorus levels. The safety analysis includes all patients who received at least one dose of study drug.
The safety population was defined as all patients who received at least one dose of IM156. The PK population was not defined in the protocol but included all patients with sufficient PK data to perform adequate PK modeling. The efficacy population included all patients who underwent at least one tumor imaging assessment while receiving IM156. Safety was assessed using descriptive statistics (e.g., DLTs, AEs, laboratory tests, physical examination, 12-lead ECG). The incidence and number of events were reported for the DLTs observed in Cycle 1 per dose group. […] Adverse events and TRAEs were standardized with the System Organ Class and the Preferred Term using the Medical Dictionary for Regulatory Activities v23.0. In addition, TEAEs, serious adverse events (SAEs), TEAE severity, and TEAEs leading to withdrawal were presented by dose group. Efficacy data were to be presented by Waterfall and Swim Lane plots. Time to event endpoints (e.g., DoR, PFS) were determined using Kaplan–Meier estimations with the median value for each endpoint summarized.

SMILES: NC(=Nc1ccc(OC(F)(F)F)cc1)N=C(N)N1CCCC1 [IM156]
- TEAE Purpura grade 2 (DL7 1200 mg orally daily (n=4)): 0
- TEAE Purpura grade 3 (DL7 1200 mg orally daily (n=4)): 0
- TEAE Purpura grade 4 (DL7 1200 mg orally daily (n=4)): 0
- TEAE Urinary retention grade 1 (DL7 1200 mg orally daily (n=4)): 0
- TEAE Urinary retention grade 2 (DL7 1200 mg orally daily (n=4)): 0
- TEAE Urinary retention grade 3 (DL7 1200 mg orally daily (n=4)): 0
- TEAE Urinary retention grade 4 (DL7 1200 mg orally daily (n=4)): 0
- TEAE Urinary tract disorder grade 1 (DL7 1200 mg orally daily (n=4)): 0
- TEAE Urinary tract disorder grade 2 (DL7 1200 mg orally daily (n=4)): 1
- TEAE Urinary tract disorder grade 3 (DL7 1200 mg orally daily (n=4)): 0
- TEAE Urinary tract disorder grade 4 (DL7 1200 mg orally daily (n=4)): 0
- TEAE Adrenal insufficiency grade 1 (Total): 0
- TEAE Adrenal insufficiency grade 2 (Total): 1
- TEAE Adrenal insufficiency grade 3 (Total): 0
- TEAE Adrenal insufficiency grade 4 (Total): 0
- TEAE Anaemia grade 1 (Total): 0
- TEAE Anaemia grade 2 (Total): 3
- TEAE Anaemia grade 3 (Total): 2
- TEAE Anaemia grade 4 (Total): 0
- TEAE Appendicitis perforated grade 1 (Total): 0
- TEAE Appendicitis perforated grade 2 (Total): 0
- TEAE Appendicitis perforated grade 3 (Total): 1
- TEAE Appendicitis perforated grade 4 (Total): 0
- TEAE Back pain grade 1 (Total): 0
- TEAE Back pain grade 2 (Total): 2
- TEAE Back pain grade 3 (Total): 0
- TEAE Back pain grade 4 (Total): 0
- TEAE Cystitis grade 1 (Total): 0
- TEAE Cystitis grade 2 (Total): 1
- TEAE Cystitis grade 3 (Total): 0
- TEAE Cystitis grade 4 (Total): 0
- TEAE Dry skin grade 1 (Total): 0
- TEAE Dry skin grade 2 (Total): 1
- TEAE Dry skin grade 3 (Total): 0
- TEAE Dry skin grade 4 (Total): 0
- TEAE Flank pain grade 1 (Total): 0
- TEAE Flank pain grade 2 (Total): 1
- TEAE Flank pain grade 3 (Total): 0
- TEAE Flank pain grade 4 (Total): 0
- TEAE Hypertension grade 1 (Total): 0
- TEAE Hypertension grade 2 (Total): 1
- TEAE Hypertension grade 3 (Total): 0
- TEAE Hypertension grade 4 (Total): 0
- TEAE Hypotension grade 1 (Total): 0
- TEAE Hypotension grade 2 (Total): 1
- TEAE Hypotension grade 3 (Total): 0
- TEAE Hypotension grade 4 (Total): 0
- TEAE Insomnia grade 1 (Total): 2
- TEAE Insomnia grade 2 (Total): 1
- TEAE Insomnia grade 3 (Total): 0
- TEAE Insomnia grade 4 (Total): 0
- TEAE Pain in extremity grade 1 (Total): 1
- TEAE Pain in extremity grade 2 (Total): 1
- TEAE Pain in extremity grade 3 (Total): 0
- TEAE Pain in extremity grade 4 (Total): 0
- TEAE Pruritus grade 1 (Total): 1
- TEAE Pruritus grade 2 (Total): 0
- TEAE Pruritus grade 3 (Total): 0
- TEAE Pruritus grade 4 (Total): 0
- TEAE Psychiatric disorders grade 1 (Total): 2
- TEAE Psychiatric disorders grade 2 (Total): 1
- TEAE Psychiatric disorders grade 3 (Total): 0
- TEAE Psychiatric disorders grade 4 (Total): 0
- TEAE Purpura grade 1 (Total): 1
- TEAE Purpura grade 2 (Total): 0
- TEAE Purpura grade 3 (Total): 0
- TEAE Purpura grade 4 (Total): 0
- TEAE Urinary retention grade 1 (Total): 0
- TEAE Urinary retention grade 2 (Total): 1
- TEAE Urinary retention grade 3 (Total): 0
- TEAE Urinary retention grade 4 (Total): 0
- TEAE Urinary tract disorder grade 1 (Total): 0
- TEAE Urinary tract disorder grade 2 (Total): 1
- TEAE Urinary tract disorder grade 3 (Total): 0
- TEAE Urinary tract disorder grade 4 (Total): 0
- TRAE Abdominal Pain, > G3 (patients) (Total, N = 22): 0
- TRAE Abdominal Pain, All grades (patients) (Total, N = 22): 2
- TRAE Blood Lactic Acid increased, > G3 (patients) (Total, N = 22): 0
- TRAE Blood Lactic Acid increased, All grades (patients) (Total, N = 22): 2
- TRAE Constipation, > G3 (patients) (Total, N = 22): 0
- TRAE Constipation, All grades (patients) (Total, N = 22): 2
- TRAE Decreased appetite, > G3 (patients) (Total, N = 22): 0
- TRAE Diarrhoea, > G3 (patients) (Total, N = 22): 0
- TRAE Diarrhoea, All grades (patients) (Total, N = 22): 10
- TRAE Fatigue, > G3 (patients) (Total, N = 22): 0
- TRAE Fatigue, All grades (patients) (Total, N = 22): 4
- TRAE Insomnia, > G3 (patients) (Total, N = 22): 0
- TRAE Insomnia, All grades (patients) (Total, N = 22): 2
- TRAE Nausea, > G3 (patients) (Total, N = 22): 3
- TRAE Nausea, All grades (patients) (Total, N = 22): 15
- TRAE Vomiting, > G3 (patients) (Total, N = 22): 0
- TRAE Vomiting, All grades (patients) (Total, N = 22): 9
- TEAE Abdominal discomfort, grade 1 (Total, all dose levels): 1
- TEAE Abdominal distension, grade 2 (Total, all dose levels): 1
- TEAE Abdominal pain upper, grade 2 (Total, all dose levels): 1
- TEAE Abdominal pain, grade 1 (Total, all dose levels): 2
- TEAE Abdominal pain, grade 2 (Total, all dose levels): 3
- TEAE Abdominal pain, grade 3 (Total, all dose levels): 1
- TEAE Akathisia, grade 2 (Total, all dose levels): 1
- TEAE Alanine aminotransferase increased, grade 1 (Total, all dose levels): 3
- TEAE Alanine aminotransferase increased, grade 3 (Total, all dose levels): 1
- TEAE Ascites, grade 1 (Total, all dose levels): 1
- TEAE Aspartate aminotransferase increased, grade 1 (Total, all dose levels): 2
- TEAE Aspartate aminotransferase increased, grade 2 (Total, all dose levels): 1
- TEAE Aspartate aminotransferase increased, grade 3 (Total, all dose levels): 1
- TEAE Asthenia, grade 1 (Total, all dose levels): 3
- TEAE Blood alkaline phosphatase increased, grade 2 (Total, all dose levels): 1
- TEAE Blood alkaline phosphatase increased, grade 3 (Total, all dose levels): 1
- TEAE Blood creatinine increased, grade 1 (Total, all dose levels): 3
- TEAE Blood lactic acid increased, grade 1 (Total, all dose levels): 2
- TEAE Chest pain, grade 1 (Total, all dose levels): 1
- TEAE Constipation, grade 1 (Total, all dose levels): 5
- TEAE Constipation, grade 2 (Total, all dose levels): 1
- TEAE Cough, grade 1 (Total, all dose levels): 3
- TEAE Decreased appetite, grade 1 (Total, all dose levels): 3
- TEAE Decreased appetite, grade 2 (Total, all dose levels): 1
- TEAE Diarrhoea, grade 1 (Total, all dose levels): 9
